# Results as given in publication PMC5447756, “Identification of Epigallocatechin-3- Gallate as an Inhibitor of Phosphoglycerate Mutase 1” (Frontiers in Pharmacology, 2017).
# Legend:
# PGAM1 R10K mutant = test system: T1, PGAM1 R10K mutant; experiment: Inhibition of PGAM1 R10K mutant; format: biochemical, human; conditions: compared to the wild-type PGAM1
# T1 construct: His; made in house; host or cells: E. coli BL21
# Procedure: (§1) BL21 competent cells were transformed by His-tagged pETDuet-1-PGAM1 (wildtype or mutants) or His-tagged pETDuet-1-PHGDH constructs. Cells were collected, resuspended in buffer A (20 mM Tris, 200 mM NaCl, 20 mM imidazole, pH 8.0) and sonicated on ice until complete lysis. His-tagged PGAM1, PGAM1 mutants or PHGDH recombinant proteins in supernatant were purified using Ni-NTA beads (QIAGEN), washed with buffer A, and eluted with buffer B (20 mM Tris, 200 mM NaCl, 250 mM imidazole, pH 8.0). All obtained proteins were stored at -80°C.
# (§2) Recombinant PGAM1 enzymatic activity was measured by a multiple enzymes coupled assay. In brief, assay was conducted in 10 μL buffer (50 mM HEPES, PH 7.5, 10 mM MgCl2) containing 5 μL 1 mg/ml recombinant PGAM1 enzyme, 2.5 μL test compound, 2.5 μL 1 mM ADP, 1 mM 3-PG, 0.5 units/ml enolase (Sigma–Aldrich) and 0.5 units/mL recombinant pyruvate kinase M1 (Sigma–Aldrich). The production of ATP was measured by Kinase-Glo® Max Luminescent Kinase Assay (Promega).
# (§3) H186R was a well-validated catalytically dead mutant of PGAM1 ([Zhang et al., 2016]; [Qu et al., 2017]), which was used as a control (Figure 2B).
# human xenograft tumors = test system: human xenograft tumors; design: method as in Hitosugi et al., 2012; conditions: mice models carrying human xenograft tumors; ref Hitosugi et al., 2012; cited from earlier work
# NCI-H1299 cells [1] = experiment: Intracellular 2-PG measurement; format: cell-based, human; conditions: NCI-H1299, 24 h, free compound
# Procedure: A 2-Phosphoglycerate Colorimetric/Fluorometric Assay kit (BioVision) was used to measure cellular 2-PG level. Cells were collected after exposure to compounds for 24 h, washed with PBS, and lysed with ice-cold 2-PG assay buffer. […] The samples were measured by using EnVision® at Ex 535 Em 587 nm.
# PGAM1 R191K mutant = test system: T2, PGAM1 R191K mutant; experiment: Inhibition of PGAM1 R191K mutant; format: biochemical, human; conditions: compared to the wild-type PGAM1
# T2 construct: His; made in house; host or cells: E. coli BL21
# Procedure: as §1, §2, §3
# PGAM1 R116K mutant = test system: T3, PGAM1 R116K mutant; experiment: Inhibition of PGAM1 R116K mutant; format: biochemical, human; conditions: compared to the wild-type PGAM1
# T3 construct: His; made in house; host or cells: E. coli BL21
# Procedure: as §1, §2, §3
# Caco-2 monolayer = Caco-2 monolayer permeability; format: in vitro ADME; conditions: result in words
# Procedure: The solubility of compounds was measured by Nephelometry using the NEPHELOstar plus apparatus (BMG Lab Technologies). Caco-2 monolayer was cultivated on permeable support. In details, after 21-day culture, the integrity of the cell monolayer of every well was verified by measuring the transepithelial electrical resistance (TEER). The diluted solution was added to corresponding well and the plate was incubated at 37°C for 1.5 h. 100 μL samples were collected from both apical and basolateral sides at the initial and end time points and the sample concentrations were measured for the evaluation of mass balance.
# PGAM1 [2] = target: T4, PGAM1 (Homo sapiens, UniProt P18669); experiment: PGAM1 coupled enzymatic assay (PKM1/enolase, Kinase-Glo); format: biochemical; conditions: recombinant PGAM1, coupled enzyme assay; read-out: IC50, inhibition of PGAM1
# T4 construct: His; made in house; host or cells: E. coli BL21
# T4 sequence (P18669 whole entry): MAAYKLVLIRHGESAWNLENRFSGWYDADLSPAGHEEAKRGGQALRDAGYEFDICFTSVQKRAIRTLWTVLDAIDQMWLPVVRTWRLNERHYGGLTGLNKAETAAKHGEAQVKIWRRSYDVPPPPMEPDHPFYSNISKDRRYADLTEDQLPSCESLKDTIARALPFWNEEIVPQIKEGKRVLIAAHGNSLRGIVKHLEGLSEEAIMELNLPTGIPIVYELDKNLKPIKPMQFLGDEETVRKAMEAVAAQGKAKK
# Excerpt: To identify new PGAM1 inhibitors, we utilized a coupled PGAM1 and pyruvate kinase isozymes M1 (PKM1)/enolase biochemical assay followed by a counter screen to exclude compounds with activity toward PKM1 or enolase. […] Using these biochemical assays, we screened a chemical library composed of 800 purified compounds derived from natural products.
# [3] = test system: T5, phosphoglycerate dehydrogenase (PHGDH); experiment: PHGDH enzymatic assay; format: biochemical; conditions: at a concentration up to 100 μM
# T5 construct: His; made in house; host or cells: E. coli BL21
# Procedure: Assays were conducted in 10 μL buffer (200 mM Tris-HCl pH8.1, 400 mM KCl, 2 mM GSH, and 10 mM EDTA) containing recombinant PHGDH, 0.6 mM NAD, 1 mM 3-PG. The NADH product can be measured by diaphorase/rezasurin system.
# PGAM1 [4] = target: T4, PGAM1; experiment: Surface plasmon resonance binding to PGAM1; conditions: SPR, 25°C, 1:1 Langmuir binding model; read-out: dissociation constant (Kd-value)
# Procedure: Surface plasmon resonance (SPR) assay was carried out with a ProteOn XPR36 instrument (Bio-Rad). PGAM1 was coupled to the surface of a GLH sensor chip according to the manufacturer’s instructions. […] Resonance units (RU) changes represent the binding condition. The dissociation constant (Kd) was calculated using the ProteOn Manager 3.1 software program by fitting to a 1:1 Langmuir binding model.
# PGAM1 [5] = target: T4, PGAM1; experiment: Substrate 3-PG competition, Lineweaver-Burk plot analysis; format: biochemical
# NCI-H1299 cells [6] = experiment: Cell proliferation assay, NCI-H1299; format: cell-based, human
# Procedure: Cells were seeded into a 6-well plate. […] The cells were harvested after incubation for 72 h and the proliferation inhibition rate was calculated by cell number counting (Beckman).
# hexokinase 2 (HK2) = test system: hexokinase 2 (HK2); design: method as in Gao et al., 2015; conditions: human tongue carcinoma; ref Gao et al., 2015; cited from earlier work
# [7] = test system: T6, mutant isocitrate dehydrogenase 1 (IDH1 R132H); experiment: IDH enzymatic assay; format: biochemical; conditions: at a concentration up to 100 μM
# T6 construct: purchased Cayman Chemical
# Procedure: Assays were conducted in 10 μL buffer [150 mM NaCl, 20 mM Tris pH7.5, 10 mM MgCl2, 0.05% (w/v) bovine serum albumin] containing 2.5 μL of test compound, 5 μL enzyme solution (10 ng/μL mutant IDH, Cayman Chemical) and 2.5 μL substrate solution (1 mM α-KG, 4 μM NADPH) added into a 384-well plate followed by incubation at room temperature for 60 min. After incubation, NADPH remaining amount was measured by adding 5 μL buffer containing 5 μM resazurin and 0.01 unit diaphorase and incubated at room temperature for 10 min. The plate was read using EnVision (Perkin Elmer) at Ex 540 Em 590 nm.
membrane permeability (Caco-2 monolayer),IC50 (PGAM1 [2]) [nM],inhibition of PHGDH [3],Kd (PGAM1 [4]) [nM],pattern of inhibition with substrate 3-PG (PGAM1 [5]),inhibition of mutant IDH1 [7],Compound,inhibitory activity toward R10K mutant (PGAM1 R10K mutant),anticancer properties in xenograft mice (human xenograft tumors),concentration giving apparent inhibition of intracellular 2-PG level (NCI-H1299 cells [1]) [µM],inhibitory activity toward R191K mutant (PGAM1 R191K mutant),inhibitory activity toward R116K mutant (PGAM1 R116K mutant),"cell growth (NCI-H1299 cells [6]; NCI-H1299, 72 h, cell counting)","effect of stable knockdown of PGAM1 on growth inhibition (NCI-H1299 cells [6]; PGAM1 stable knockdown NCI-H1299 (shPGAM1) vs scramble, 72 h)",expression of hexokinase 2 (HK2) (hexokinase 2 (HK2))
,,,,,,"O=C1c2ccccc2C(=O)c2c1cc(S(=O)(=O)Nc1ccc(C(F)(F)F)cc1)c(O)c2O [PGMI-004A, reference compound]",only slightly affect the activity,exhibited evident anticancer properties,20,only slightly affect the activity,only slightly affect the activity,,,
extremely low membrane permeability,490 ± 170,did not inhibit,780,non-competitive,did not inhibit,(-)-Epigallocatechin-3-gallate [EGCG],lost its inhibitory activity,,80,lost its inhibitory activity,lost its inhibitory activity,dose-dependently inhibited cell growth,partially rescued,inhibits the expression
